# Experimental data from patent US20160130278A1 (TAISHO PHARMACEUTICAL CO., LTD, priority 2013, published 2016).
# pIC50: −log10 of the molar value.
# Target: T1, human type 1 glycine transporter (GlyT1) (Homo sapiens, UniProt P48067)
# T1 construct: T98G cells (glioma cells) expressing human type 1 glycine transporter (GlyT1) were used
# T1 sequence (P48067 1-706): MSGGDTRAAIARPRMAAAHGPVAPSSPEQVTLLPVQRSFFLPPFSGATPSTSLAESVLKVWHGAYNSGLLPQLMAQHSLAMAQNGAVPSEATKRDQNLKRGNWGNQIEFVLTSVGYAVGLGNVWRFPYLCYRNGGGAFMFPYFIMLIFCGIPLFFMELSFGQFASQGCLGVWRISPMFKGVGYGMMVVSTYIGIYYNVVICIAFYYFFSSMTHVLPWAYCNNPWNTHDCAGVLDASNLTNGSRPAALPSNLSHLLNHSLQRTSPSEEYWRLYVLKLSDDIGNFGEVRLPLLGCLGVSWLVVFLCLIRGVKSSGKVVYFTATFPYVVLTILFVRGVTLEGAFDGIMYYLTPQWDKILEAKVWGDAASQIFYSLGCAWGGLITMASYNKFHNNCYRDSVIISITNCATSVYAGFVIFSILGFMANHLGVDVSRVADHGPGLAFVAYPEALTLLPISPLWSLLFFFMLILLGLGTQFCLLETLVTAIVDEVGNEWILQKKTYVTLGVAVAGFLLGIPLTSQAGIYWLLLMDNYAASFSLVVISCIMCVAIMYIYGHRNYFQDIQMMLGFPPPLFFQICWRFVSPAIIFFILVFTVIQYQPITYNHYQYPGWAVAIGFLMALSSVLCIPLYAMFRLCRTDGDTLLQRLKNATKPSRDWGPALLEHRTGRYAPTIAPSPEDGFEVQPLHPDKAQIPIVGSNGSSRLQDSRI
# Experiment: Glycine uptake inhibition experiment ([3H]glycine uptake)
# Assay type: cell-based
# Settings: GlyT1
# Experimental: Glycine Uptake Inhibition Experiment
# A glycine uptake experiment was conducted in accordance with the method published in Neuron, 8, 927-935, 1992. In the experiment, T98G cells (glioma cells) expressing human type 1 glycine transporter (GlyT1) were used. The T98G cells were seeded in a 96-well plate at 2.0×10^4 cells/well and cultured overnight in a CO2 incubator. The test substance was dissolved in a 100% DMSO solution and then dissolved in a 10 mM HEPES buffer solution (pH 7.4) containing 150 mM sodium chloride, 1 mM calcium chloride, 5 mM potassium chloride, 1 mM magnesium chloride, 10 mM glucose and 0.2% bovine serum albumin. After removing the cell culture medium, the test substance was subjected to a 10-min pretreatment. Subsequently, the test substance and [^3H] glycine (final concentration: 250 nM) were added to the cells and reaction was performed at room temperature for 15 minutes. After the end of the reaction, the extracellular fluid was aspirated with a manifold to remove excess labeled glycine present outside the cells, and then the cells were lysed with a 0.5 M aqueous sodium hydroxide solution. The glycine content in the cells was determined by measuring the radioactivity in the cell lysate with a liquid scintillation counter. Glycine uptake in the presence of 10 μM ALX5407 was defined as non-specific uptake, and the value calculated by subtracting the amount of the non-specific uptake from the total uptake in the absence of 10 μM ALX5407 was defined as specific uptake. In addition, glycine uptake inhibitory activity (IC50 value) was calculated from an inhibition curve at the concentrations of each test substance ranging from 10^−9 to 10^−5 M. It should be noted that ALX5407 is an HCl salt of N-[(3R)-3-([1,1′-biphenyl]-4-yloxy)-3-(4-fluorophenyl)propyl]-N-methylglycine.
row,Structure (SMILES),pIC50
1,"O=C(NC(c1cc(Cl)ccn1)C1(O)CCC(F)(F)CC1)c1cc(C(F)(F)F)cnc1Cl (single isomer, unassigned) [Compound 360, 2-chloro-N-[(4-chloropyridin-2-yl)(4,4-difluoro-1-hydroxycyclohexyl)methyl]-5-(trifluoromethyl)pyridine-3-carboxamide]",6.28
2,"O=C(NC(c1ccccc1Cl)C1(O)CCC(F)(F)CC1)c1nccc(C(F)(F)F)c1Cl (single isomer, unassigned) [Compound 156, 3-chloro-N-[(2-chlorophenyl)(4,4-difluoro-1-hydroxycyclohexyl)methyl]-4-(trifluoromethyl)pyridine-2-carboxamide]",5.74
3,"[2H]C1([2H])C([2H])([2H])C([2H])([2H])C(O)(C(NC(=O)c2nccc(C(F)(F)F)c2Cl)c2cccc(Cl)c2)C([2H])([2H])C1([2H])[2H] (single isomer, unassigned) [Compound 231, 3-chloro-N-{(3-chlorophenyl)[1-hydroxy(^2H10)cyclohexyl]methyl}-4-(trifluoromethyl)pyridine-2-carboxamide]",7.40
4,"O=C(NC(c1cccc(F)c1Cl)[C@]1(O)CC[C@@H](F)CC1)c1ccc(Cl)cc1-n1nccn1 (single isomer, unassigned) [Compound 285, 4-chloro-N-[(2-chloro-3-fluorophenyl)(cis-4-fluoro-1-hydroxycyclohexyl)methyl]-2-(2H-1,2,3-triazol-2-yl)benzamide]",5.70
5,"O=C(NC(c1cccc(F)c1Cl)[C@]1(O)CC[C@@H](F)CC1)c1ccnc(C(F)(F)F)c1Cl (single isomer, unassigned) [Compound 223, 3-chloro-N-[(2-chloro-3-fluorophenyl)(cis-4-fluoro-1-hydroxycyclohexyl)methyl]-2-(trifluoromethyl)pyridine-4-carboxamide]",7.25
6,"O=C(NC(c1cccc(F)c1)C1(O)CCCC1)c1cccc(C(F)(F)F)c1Cl (single isomer, unassigned) [Compound 73, 2-chloro-N-[(3-fluorophenyl)(1-hydroxycyclopentyl)methyl]-3-(trifluoromethyl)benzamide]",6.66
7,"CCn1cc(-c2cccc(C(NC(=O)c3cccc4ccccc34)C3(O)CCC(F)(F)CC3)c2)cn1 (single isomer, unassigned) [Compound 195, N-{(4,4-difluoro-1-hydroxycyclohexyl)[3-(1-ethyl-1H-pyrazol-4-yl)phenyl]methyl}naphthalene-1-carboxamide]",5.96
8,"CS(=O)(=O)c1ccc(C(F)(F)F)cc1C(=O)NC(c1ccccc1Cl)C1(O)CCC(F)(F)CC1 (single isomer, unassigned) [Compound 395, N-[(2-chlorophenyl)(4,4-difluoro-1-hydroxycyclohexyl)methyl]-2-(methylsulfonyl)-5-(trifluoromethyl)benzamide]",6.48
9,"CCn1cc(-c2cccc(C(NC(=O)c3nccnc3Cl)C3(O)CCC(F)(F)CC3)c2)cn1 (stereo not drawn) [Compound 141, 3-chloro-N-{(4,4-difluoro-1-hydroxycyclohexyl)[3-(1-ethyl-1H-pyrazol-4-yl)phenyl]methyl}pyradine-2-carboxamide]",5.51
10,"O=C(NC(c1cc(Cl)ccn1)C1(O)CCC(F)(F)CC1)c1cc(C(F)(F)F)ncc1Cl (single isomer, unassigned) [Compound 348, 5-chloro-N-[(4-chloropyridin-2-yl)(4,4-difluoro-1-hydroxycyclohexyl)methyl]-2-(trifluoromethyl)pyridine-4-carboxamide]",6.31
11,"O=C(NC(c1cc(Cl)ccc1Cl)C1(O)CCCC1)c1nccc(C(F)(F)F)c1Cl (single isomer, unassigned) [Compound 113, 3-chloro-N-[(2,5-dichlorophenyl)(1-hydroxycyclopentyl)methyl]-4-(trifluoromethyl)pyridine-2-carboxamide]",5.77
12,"O=C(NC(c1cccc(Cl)n1)[C@]1(O)CC[C@@H](F)CC1)c1cccc(C(F)(F)F)c1Cl (single isomer, unassigned) [Compound 327]",7.09
13,"N#Cc1cccc(C(NC(=O)c2nccc(C(F)(F)F)c2Cl)C2(O)CCCC2)c1 (stereo not drawn) [Compound 23, 3-chloro-N-[(3-cyanophenyl)(1-hydroxycyclopentyl)methyl]-4-(trifluoromethyl)pyridine-2-carboxamide]",6.52
14,"O=C(NC(c1ccc(F)c(Cl)c1)[C@]1(O)CC[C@@H](F)CC1)c1nccc(C(F)(F)F)c1Cl (single isomer, unassigned) [Compound 225, 3-chloro-N-[(3-chloro-4-fluorophenyl)(cis-4-fluoro-1-hydroxycyclohexyl)methyl]-4-(trifluoromethyl)pyridine-2-carboxamide]",6.41
15,"O=C(NC(c1ncccc1Cl)C1(O)CCC(F)(F)CC1)c1nccc(C(F)(F)F)c1Cl (single isomer, unassigned) [Compound 318, 3-chloro-N-[(3-chloropyridin-2-yl)(4,4-difluoro-1-hydroxycyclohexyl)methyl]-4-(trifluoromethyl)pyridine-2-carboxamide]",6.62
16,"O=C(NC(c1cccc(F)c1Cl)[C@]1(O)CC[C@@H](F)CC1)c1cc(O)ccc1Cl (single isomer, unassigned) [Compound 297, 2-chloro-N-[(2-chloro-3-fluorophenyl)(cis-4-fluoro-1-hydroxycyclohexyl)methyl]-5-hydroxybenzamide]",5.82
17,"O=C(NC(c1cccc(Cl)n1)[C@]1(O)CC[C@@H](F)CC1)c1cc(C(F)(F)F)ccc1Cl (single isomer, unassigned) [Compound 362]",6.72
18,"Cc1c(Cl)ccnc1C(=O)NC(c1cccc(F)c1Cl)[C@]1(O)CC[C@@H](F)CC1 (single isomer, unassigned) [Compound 224, 4-chloro-N-[(2-chloro-3-fluorophenyl)(cis-4-fluoro-1-hydroxycyclohexyl)methyl]-3-methylpyridine-2-carboxamide]",6.57
19,"O=C(NC(c1cccc(Cl)c1Cl)C1(O)CCCC1)c1nccc(C(F)(F)F)c1Cl (single isomer, unassigned) [Compound 117, 3-chloro-N-[(2,3-dichlorophenyl)(1-hydroxycyclopentyl)methyl]-4-(trifluoromethyl)pyridine-2-carboxamide]",7.54
20,"O=C(NC(c1cccc(Cl)c1F)C1(O)CCC(F)(F)CC1)c1nc(C(F)(F)F)ccc1Cl (single isomer, unassigned) [Compound 226, 3-chloro-N-[(3-chloro-2-fluorophenyl)(4,4-difluoro-1-hydroxycyclohexyl)methyl]-6-(trifluoromethyl)pyridine-2-carboxamide]",5.89
21,"CCn1cc(-c2cccc(C(NC(=O)c3nccc(C(F)(F)F)c3Cl)C3(O)CCCC3)c2)cn1 (single isomer, unassigned) [Compound 14, 3-chloro-N-{[3-(1-ethyl-1H-pyraozl-4-yl)phenyl](1-hydroxycyclopentyl)methyl}-4-(trifluoromethyl)pyridine-2-carboxamide]",7.89
22,"CCn1cc(-c2cccc(C(NC(=O)c3cc(C(F)(F)F)cnc3Cl)C3(O)CCC(F)(F)CC3)c2)cn1 (stereo not drawn) [Compound 202, 2-chloro-N-{(4,4-difluoro-1-hydroxycyclohexyl)[3-(1-ethyl-1H-pyrazol-4-yl)phenyl]methyl}-5-(trifluoromethyl)pyridine-3-carboxamide]",6.05
23,"Cc1cc(C(=O)NC(c2cccc(F)c2Cl)[C@]2(O)CC[C@@H](F)CC2)c2cnn(C(C)C)c2n1 (single isomer, unassigned) [Compound 269, N-[(2-chloro-3-fluorophenyl)(cis-4-fluoro-1-hydroxycyclohexyl)methyl]-6-methyl-1-(propan-2-yl)-1H-pyrazolo[3,4-b]pyridine-4-carboxamide]",5.77

# Same assay, conditions: human GlyT1
row,Structure (SMILES),pIC50
1,"O=C(NC(c1ccccc1Cl)C1(O)CCC(F)(F)CC1)c1ncc(C(F)(F)F)cc1-n1nccn1 (single isomer, unassigned) [Compound 407, N-[(2-chlorophenyl)(4,4-difluoro-1-hydroxycyclohexyl)methyl]-3-(2H-1,2,3-triazol-2-yl)-5-(trifluoromethyl)pyridine-2-carboxamide]",6.00
